The test system of this test is L1210 leukemia ip in BDF1 mice, survival T/C. As to the kind of experiment: NCI In Vivo Anticancer Drug Screen. Data for tumor model L1210 Leukemia (intraperitoneal) in B6D2F1 (BDF1) mice. The following applies: endpoint: mean survival time, higher = longer survival. A digest of the protocol:
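Ratio derived from survival: compound-dosed mice over vehicle-dosed mice, all bearing a transplantable tumor.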

Setting [1] is: dose: 100.0 mg/kg/injection, schedule: Q01DX001 (ip), vehicle: saline.
The mark [2] stands for this setting: dose: 200.0 mg/kg/injection, schedule: Q01DX001 (ip), vehicle: saline.
Setting [3] is: dose: 400.0 mg/kg/injection, schedule: Q01DX001 (ip), vehicle: saline.
Where [4] appears, read: dose: 100.0 mg/kg/injection, schedule: Q01DX001 (ip), vehicle: Klucel (hydroxypropylcellulose) (HPC).
Where [5] appears, read: dose: 100.0 mg/kg/injection, schedule: Q01DX009 (ip), vehicle: Klucel (hydroxypropylcellulose) (HPC).
Where [6] appears, read: dose: 100.0 mg/kg/injection, schedule: Q04DX003 (ip), vehicle: Klucel (hydroxypropylcellulose) (HPC).
The mark [7] stands for this setting: dose: 200.0 mg/kg/injection, schedule: Q01DX001 (ip), vehicle: Klucel (hydroxypropylcellulose) (HPC).
[8] abbreviates: dose: 200.0 mg/kg/injection, schedule: Q01DX009 (ip), vehicle: Klucel (hydroxypropylcellulose) (HPC).
The mark [9] stands for this setting: dose: 200.0 mg/kg/injection, schedule: Q04DX003 (ip), vehicle: Klucel (hydroxypropylcellulose) (HPC).
Where [10] appears, read: dose: 400.0 mg/kg/injection, schedule: Q01DX001 (ip), vehicle: Klucel (hydroxypropylcellulose) (HPC).
The mark [11] stands for this setting: dose: 400.0 mg/kg/injection, schedule: Q01DX009 (ip), vehicle: Klucel (hydroxypropylcellulose) (HPC).
The mark [12] stands for this setting: dose: 400.0 mg/kg/injection, schedule: Q04DX003 (ip), vehicle: Klucel (hydroxypropylcellulose) (HPC).

Several values for one entry are separate records, joined by “and”; a condition that tells them apart may be missing. Equal values may be shown once. Inconclusive results and toxic doses are left out.

Regarding `CC(=O)OCC(=O)[C@@]1(O)CC[C@H]2[C@@H]3C[C@@H](C)C4=CC(=O)C=C[C@]4(C)[C@H]3[C@@H](O)C[C@@]21C`, the T/C runs as follows: (dose: 75.0 mg/kg/injection, schedule: Q01DX009 (sc), vehicle: steriod suspending solution) 92 % of control; (dose: 100.0 mg/kg/injection, schedule: Q04DX003 (ip), vehicle: steriod suspending solution) 97 % of control; (dose: 100.0 mg/kg/injection, schedule: Q04DX003 (sc), vehicle: steriod suspending solution) 100 % of control; (dose: 150.0 mg/kg/injection, schedule: Q01DX009 (sc), vehicle: steriod suspending solution) 92 % of control; (dose: 200.0 mg/kg/injection, schedule: Q04DX003 (ip), vehicle: steriod suspending solution) 91 % of control; (dose: 200.0 mg/kg/injection, schedule: Q04DX003 (sc), vehicle: steriod suspending solution) 102 % of control. Moreover, the T/C by setting is: (dose: 300.0 mg/kg/injection, schedule: Q01DX009 (sc), vehicle: steriod suspending solution) 92 % of control; (dose: 400.0 mg/kg/injection, schedule: Q04DX003 (ip), vehicle: steriod suspending solution) 94 % of control; (dose: 400.0 mg/kg/injection, schedule: Q04DX003 (sc), vehicle: steriod suspending solution) 103 % of control.
`CCOC(=O)C(OC(=O)c1ccccc1)(OC(=O)c1ccccc1)C(=O)OCC`: the T/C was 101 % of control under setting [1] and 93 % of control under setting [2].
Take `COc1ccc(C(=S)N2CCN(c3ccccc3Cl)CC2)cc1`: the T/C is 101 % of control under setting [1], 91 % of control under setting [2] and 90 % of control under setting [3].
For the molecule `COc1ccccc1C(O)c1cnc(C)n1Cc1ccccc1` (stereo unspecified), the T/C is, setting by setting: under setting [4], 113 % of control; under setting [5], 96 % of control and 97 % of control; (dose: 100.0 mg/kg/injection, schedule: Q04DX002 (ip), vehicle: Klucel (hydroxypropylcellulose) (HPC)) 96 % of control and 98 % of control; under setting [6], 92 % of control; under setting [7], 100 % of control; under setting [8], 96 % of control and 103 % of control. In addition, the T/C was 98 % of control and 92 % of control (dose: 200.0 mg/kg/injection, schedule: Q04DX002 (ip), vehicle: Klucel (hydroxypropylcellulose) (HPC)); 92 % of control under setting [9]; 95 % of control under setting [10]; 93 % of control and 97 % of control under setting [11]; 95 % of control and 92 % of control (dose: 400.0 mg/kg/injection, schedule: Q04DX002 (ip), vehicle: Klucel (hydroxypropylcellulose) (HPC)); 95 % of control under setting [12].
As for `COc1ccc2c(c1)NP(=S)(c1ccccc1)N2` (stereo unspecified), the T/C is 101 % of control (dose: 50.0 mg/kg/injection, schedule: Q01DX001 (ip), vehicle: gum acacia); 91 % of control (dose: 100.0 mg/kg/injection, schedule: Q01DX001 (ip), vehicle: gum acacia); 91 % of control (dose: 100.0 mg/kg/injection, schedule: Q01DX009 (ip), vehicle: gum acacia); 100 % of control (dose: 200.0 mg/kg/injection, schedule: Q01DX001 (ip), vehicle: gum acacia); 91 % of control (dose: 200.0 mg/kg/injection, schedule: Q01DX009 (ip), vehicle: gum acacia); 91 % of control (dose: 400.0 mg/kg/injection, schedule: Q01DX009 (ip), vehicle: gum acacia).
Turning to `CCC/C(=C\C(=O)O)CC`, the T/C reads like this: under setting [5], 94 % of control; under setting [6], 93 % of control; under setting [8], 96 % of control; under setting [9], 90 % of control; under setting [11], 96 % of control; under setting [12], 98 % of control.
For `CC(=O)NC1CC(CO)C(O)C1O` (stereo unspecified), the T/C is, setting by setting: under setting [1], 107 % of control; under setting [2], 90 % of control; under setting [3], 101 % of control.
In the case of `O=C1C2C3C=CC(CC3)C2S(=O)(=O)C2C3C=CC(CC3)C12` (stereo unspecified), the T/C is 96 % of control (dose: 25.0 mg/kg/injection, schedule: Q04DX002 (ip), vehicle: gum acacia); 104 % of control (dose: 50.0 mg/kg/injection, schedule: Q04DX002 (ip), vehicle: gum acacia); 100 % of control (dose: 100.0 mg/kg/injection, schedule: Q04DX002 (ip), vehicle: gum acacia).
On to `COC(=O)C(=O)NCc1cnccn1`, for which the T/C (dose: 100.0 mg/kg/injection, schedule: Q01DX009 (ip), vehicle: saline) is 105 % of control; the T/C (dose: 100.0 mg/kg/injection, schedule: Q04DX003 (ip), vehicle: saline) was 93 % of control; the T/C (dose: 200.0 mg/kg/injection, schedule: Q01DX009 (ip), vehicle: saline) was 110 % of control; the T/C (dose: 200.0 mg/kg/injection, schedule: Q04DX003 (ip), vehicle: saline) is 107 % of control; the T/C (dose: 400.0 mg/kg/injection, schedule: Q01DX009 (ip), vehicle: saline) was 111 % of control; the T/C (dose: 400.0 mg/kg/injection, schedule: Q04DX003 (ip), vehicle: saline) is 100 % of control.
`O=C(O)C1CCCCC1C(=O)Nc1ccc(Cl)cc1` (stereo unspecified): the T/C (dose: 50.0 mg/kg/injection, schedule: Q01DX009 (ip), vehicle: saline with Tween-80) is 88 % of control; the T/C (dose: 100.0 mg/kg/injection, schedule: Q01DX009 (ip), vehicle: saline with Tween-80) is 87 % of control; the T/C (dose: 100.0 mg/kg/injection, schedule: Q04DX003 (ip), vehicle: saline with Tween-80) is 96 % of control; the T/C (dose: 200.0 mg/kg/injection, schedule: Q01DX009 (ip), vehicle: saline with Tween-80) is 98 % of control; the T/C (dose: 200.0 mg/kg/injection, schedule: Q04DX003 (ip), vehicle: saline with Tween-80) is 97 % of control.
`CC(C)(C#CC(C)(C)OC(=O)Nc1ccccc1)OC(=O)Nc1ccccc1`: the T/C runs as follows: under setting [1], 98 % of control; under setting [2], 95 % of control; under setting [3], 101 % of control.
Regarding `O=NN1CCCNC1=O`, the T/C by setting is: (dose: 3.0 mg/kg/injection, schedule: Q01DX Z (ip), vehicle: carboxymethylcellulose (CMC)) 105 % of control; (dose: 6.0 mg/kg/injection, schedule: Q01DX Z (ip), vehicle: carboxymethylcellulose (CMC)) 107 % of control; (dose: 12.0 mg/kg/injection, schedule: Q01DX Z (ip), vehicle: carboxymethylcellulose (CMC)) 110 % of control; (dose: 50.0 mg/kg/injection, schedule: Q01DX Z (ip), vehicle: carboxymethylcellulose (CMC)) 181 % of control; (dose: 75.0 mg/kg/injection, schedule: Q01DX Z (ip), vehicle: carboxymethylcellulose (CMC)) 118 % of control; (dose: 100.0 mg/kg/injection, schedule: Q01DX Z (ip), vehicle: carboxymethylcellulose (CMC)) 87 % of control.
As for `COc1cc([N+](=O)[O-])cc(OC)c1OC`, the T/C under setting [4] is 95 % of control, the T/C under setting [7] was 92 % of control and the T/C under setting [10] was 97 % of control.
In the case of `Cc1ccccc1N=Nc1c(O)[nH]c2ccccc12`, the T/C runs as follows: (dose: 100.0 mg/kg/injection, schedule: Q01DX001 (ip), vehicle: acetone) 93 % of control; (dose: 200.0 mg/kg/injection, schedule: Q01DX001 (ip), vehicle: acetone) 95 % of control; (dose: 400.0 mg/kg/injection, schedule: Q01DX001 (ip), vehicle: acetone) 96 % of control.
Consider `Oc1ccccc1CNc1ccc(Br)cc1`, for which the T/C (dose: 100.0 mg/kg/injection, schedule: Q04DX003 (ip), vehicle: gum acacia) is 95 % of control; the T/C (dose: 200.0 mg/kg/injection, schedule: Q04DX003 (ip), vehicle: gum acacia) is 95 % of control; the T/C (dose: 400.0 mg/kg/injection, schedule: Q04DX003 (ip), vehicle: gum acacia) is 93 % of control.
`CCOC(=O)Nc1cc(NC(c2ccccc2)c2ccccc2)c([N+](=O)[O-])c(NC(=O)OCC)n1`: the T/C is 97 % of control (dose: 100.0 mg/kg/injection, schedule: Q01DX001 (ip), vehicle: carboxymethylcellulose (CMC)); 92 % of control (dose: 200.0 mg/kg/injection, schedule: Q01DX001 (ip), vehicle: carboxymethylcellulose (CMC)); 92 % of control (dose: 400.0 mg/kg/injection, schedule: Q01DX001 (ip), vehicle: carboxymethylcellulose (CMC)).

The values above are taken from PubChem BioAssay AID248 (DTP/NCI, 2004).
